{
  "source": "patent US8440849B2",
  "about": "“Use of nitroaniline derivatives for the production of nitric oxide” (STMicroelectronics S.r.l., priority 2006, dated 2013)",
  "test": "NO photo-release, fluorimetric DAN (2,3-diaminonaphthalene) assay measuring nitrite levels",
  "conditions": "for NO release after irradiation (presence of nitrites, fluorescent spectrum): 350 nm, 8 lamps",
  "text": "It allows the indirect determination of NO by measuring nitrite levels. In particular, NO is an highly reactive gas that, in the presence of water, forms an equimolar mixture of nitrites and nitrates. Nitrites, reacting with a DAN (2,3-diaminonaphtalene) solution in the presence of an acid, form 1-naphthotriazole, a highly fluorescent compound having a characteristic UV absorbance.\nTherefore, the solution of 4-nitro-3-(trifluoromethyl)aniline in methanol after irradiation was dried and then the recovered 4-nitro-3-(trifluoromethyl)aniline was re-dissolved with water and phosphate buffer 0.1 M (pH 7.4). 150 μl of a DAN solution were added to the solution of 4-nitro-3-(trifluoromethyl)aniline heating at 50° C. for 40 minutes. Subsequently, 150 μl of concentrated NaOH was added in order to obtain naphthotriazole ions according to the scheme below.\n300 μl of a DAN saturated solution in HCl 0.6 M were added to 3 ml of the irradiated solution of 10-(3-(trifluoromethyl)-4-Nitrophenylamino)decan-1-thiol followed by heating at 50° C. for 20 minutes.\nSubsequently, 1 ml of NaOH was added to 1 ml of the solution in order to obtain naphthotriazole ions.\nThe NO photo-release of the nanoparticles functionalized with 1043-(trifluoromethyl)-4-Nitrophenylamino)decan-1-thiol was measured using fluorimetric assay based on 2,3-diaminonaphthalene (DAN) [T. P. Misko, R. J. Schilling, D. Salvemini, W. M. Moore, M. G. Currie, Anal. […]], as shown in Examples 1 and 2 (FIG. 8).",
  "data": [
    {"smiles": "O=[N+]([O-])c1ccc(NCCCCCCCCCCS)cc1C(F)(F)F", "note": "[10-(3-(trifluoromethyl)-4-Nitrophenylamino)decan-1-thiol]", "values": [
      {"measurement": "NO release after irradiation (presence of nitrites, fluorescent spectrum)", "setting": "CH3OH:H2O (10%) solution, 35 minutes, DAN in HCl 0.6 M, FIG. 6", "value": "formation of NO"},
      {"measurement": "NO photo-release profile (trend of the curve)", "setting": "fluorimetric DAN assay, FIG. 8", "value": "linear behavior"}
    ]},
    {"smiles": "Nc1ccc([N+](=O)[O-])c(C(F)(F)F)c1", "note": "[4-nitro-3-(trifluoromethyl)aniline]", "values": [
      {"measurement": "NO release after irradiation (presence of nitrites, fluorescent spectrum)", "setting": "methanol solution, 2 hours, DAN, phosphate buffer pH 7.4, FIG. 4", "value": "formation of NO"}
    ]}
  ]
}
